# Reference: US9045438B2 (Silanes S.A. de C.V., priority 2002, dated 2015)
# Key:
# clinical = details: both, human, in vivo
# type 2 diabetic patients = details: cited from earlier work
# [1] = tested on: patients with uncontrolled type 2 diabetes mellitus; assay: Random double blind clinical study in patients with uncontrolled type 2 diabetes mellitus, 90 days; assay type: in vivo, human; details: uncontrolled type 2 diabetes patients, final evaluation 90 days, dose by basal glycemia
# From the text: Criteria for inclusion were as follows: • 1. […] Age 40 to 65; • 3. Capacity for deglutition; and • 4 Voluntary consent Criteria for exclusion were as follows: • 1. Pregnancy; • 2. Insulin treatment; and • 3. Personal background of systemic diseases such as: • a) Cardiac insufficiency; and • b) Hepatic or chronic hepatopathic insufficiency. • 4 Background of significant chronic complications with type 2 diabetes mellitus: • a) Renal insufficiency; • b) Ischemic cardiopathy; • c) Cerebral vascular disease; and • d) Visceral neuropathy. • 5. Background of short-term terminal diseases, such as: • a) Cancer; and • b) HIV • 6. […] Known intolerance or allergies to sulfonylureas or biguanides. Criteria for exclusion from the therapy, but not from the statistical analysis: • 1. Presence of severe hypoglycemia at the maximum dosages used in the study; • 2. Presence of severe hypoglycemia at the minimum dosages used in the study; • 3. Presence of intolerable undesirable effects with any of the medications used in the study; • 4. Failure to follow the medical treatment indicated; • 5. Failure to attend scheduled visits; • 6. Intercurrent illnesses or accidents that warrant hospitalization; • 7. […] Voluntary withdrawal from the study. The variables studied were as follows: • Dependent variables: • a) Glycemia between meals; • b) Glucosylated hemoglobin; • c) β cell function; • d) Insulin resistance; and • e) Metabolic profile. • Independent variable: • a) Hypoglycemic therapy. • Intervening variables: • a) Age; • b) Sex; • c) Body mass index; and • d) Evolution of diabetes. Clinical measurements and basal measurement of glycemia between meals, glucosylated hemoglobin, total cholesterol, cholesterol of high density lipoproteins, triglycerides, creatinine, uric acid, glutemic-oxaloacetic transaminase, glutemic-pyruvic transaminase, lactic dehydrogenase, alkaline and insulin phosphatase. Random assignment of patients to each group and pharmacological intervention in accordance with concentration of basal glycemia: [table] Clinical evaluation 30 and 60 days after beginning the study, measuring glycemia between meals and lactic dehydroginase. Final clinical evaluations 90 days after the study begins, measuring glycemia between meals, glucosylated hemoglobin, total cholesterol, high density lipoprotein cholesterol, triglyceride, creatinine, uric acid, glutemic-oxaloacetic transaminase, glutemic-pyruvic transaminase, lactic dehydrogenase, alkaline and insulin phosphatase. Undesirable effects were reported on a special record sheet, specifying each of the clinical manifestations considered probable, possible or directly related to the use of the drugs ingested.
half-life (clinical) [h],Compound,"potency relative to glibenclamide (type 2 diabetic patients; R. Groomis et al., Endocrinology 13:117-121 (2000))","incidence of severe hypoglycemia versus glibenclamide (type 2 diabetic patients; type 2 diabetic patients, A. Holstein et al. (2000))",Blood glucose between meals (change) [1],Glucosylated hemoglobin HbA1c (change) [1],Post-prandial blood glucose (change) [1]
3.73,CCC1=C(C)CN(C(=O)NCCc2ccc(S(=O)(=O)NC(=O)N[C@H]3CC[C@H](C)CC3)cc2)C1=O [glimepiride],two times higher,lower incidence,+0.68,+0.25,+0.99
,CN(C)C(=N)N=C(N)N [metformin],,,+0.75,+0.06,+1.08
